In ChEMBL document CHEMBL2417447, “Synthesis and binary QSAR study of antitubercular quinolylhydrazides” (2013):

Experiments:
[1] = system: Mycobacterium tuberculosis; assay: Antitubercular activity against Mycobacterium tuberculosis H37Rv ATCC 27294 after 5 to 8 days by microplate alamar blue assay; assay type: functional
[2] = system: Mycobacterium tuberculosis; assay: Antimycobacterial activity against Mycobacterium tuberculosis H37Rv ATCC 27294 assessed as growth inhibition at 6.25 ug/ml after 5 to 8 days by microplate alamar blue assay relative to control; assay type: functional; conditions: read-out: GI

Row | SMILES | MIC [1] [µg/mL] | inhibition of growth at 6.25 µg/mL [2] [%]
1 | O=C1Nc2cc(Cl)ccc2C(=O)/C1=N/Nc1ccc(F)cc1 | < 6.25 | 50
2 | CC(=O)c1ccc(N/N=C2/C(=O)c3ccccc3N(C)C2=O)cc1 | > 6.25 | 20
3 | Cc1ccc2c(c1)NC(=O)/C(=N\Nc1ccccc1Cl)C2=O | > 6.25 | 31
4 | Cc1cccc2c1NC(=O)/C(=N\Nc1cccc(Cl)c1)C2=O | > 6.25 | 39
5 | O=C1Nc2c(cccc2[N+](=O)[O-])C(=O)/C1=N/Nc1cccc([N+](=O)[O-])c1 | < 6.25 | 60
6 | O=C1Nc2c(cccc2[N+](=O)[O-])C(=O)/C1=N/Nc1ccccc1 | < 6.25 | 99
7 | O=C1Nc2cc([N+](=O)[O-])ccc2C(=O)/C1=N/Nc1ccccc1-c1ccccc1 | < 6.25 | 100
8 | O=C1Nc2c(cccc2[N+](=O)[O-])C(=O)/C1=N/Nc1ccc(F)cc1 | > 6.25 | 46
9 | COc1ccc(N/N=C2\C(=O)Nc3c(ccc(Cl)c3Cl)C2=O)cc1 | > 6.25 | 14
10 | Cc1c(Cl)cccc1N/N=C1\C(=O)Nc2cc([N+](=O)[O-])ccc2C1=O | < 6.25 | 98
11 | O=C1Nc2c(cccc2[N+](=O)[O-])C(=O)/C1=N/Nc1ccc([N+](=O)[O-])cc1 | < 6.25 | 65
12 | Cc1cccc(N/N=C2\C(=O)Nc3c(ccc(Cl)c3Cl)C2=O)c1 | < 6.25 | 62
13 | O=C1Nc2c(cccc2[N+](=O)[O-])C(=O)/C1=N/Nc1ccccc1[N+](=O)[O-] | < 6.25 | 80
14 | O=C1Nc2c(ccc(Cl)c2Cl)C(=O)/C1=N/Nc1cccc([N+](=O)[O-])c1 | > 6.25 | 27
15 | O=C1Nc2ccccc2C(=O)/C1=N/Nc1ccccc1 | < 6.25 | 97
16 | CC(=O)c1ccc(N/N=C2\C(=O)Nc3c(ccc(Cl)c3Cl)C2=O)cc1 | < 6.25 | 98
17 | O=C1Nc2c(cccc2[N+](=O)[O-])C(=O)/C1=N/Nc1ccc(Cl)c(Cl)c1 | < 6.25 | 79
18 | O=C1Nc2ccc(Cl)cc2C(=O)/C1=N/Nc1ccc([N+](=O)[O-])cc1 | < 6.25 | 91
19 | COc1ccc(N/N=C2\C(=O)Nc3c(cccc3[N+](=O)[O-])C2=O)cc1 | > 6.25 | 37
20 | O=C1Nc2ccc(Cl)cc2C(=O)/C1=N/Nc1ccc(Cl)c(Cl)c1 | < 6.25 | 95
21 | Cc1ccccc1N/N=C1/C(=O)c2ccccc2N(C)C1=O | < 6.25 | 97
22 | O=C1Nc2c(cccc2[N+](=O)[O-])C(=O)/C1=N/Nc1ccc(Cl)cc1 | < 6.25 | 61
23 | O=C1Nc2c(Cl)ccc(Cl)c2C(=O)/C1=N/Nc1ccc(F)cc1 | < 6.25 | 80
24 | COc1ccccc1N/N=C1\C(=O)Nc2cc([N+](=O)[O-])ccc2C1=O | < 6.25 | 96
25 | COc1ccc(N/N=C2\C(=O)Nc3c(Cl)ccc(Cl)c3C2=O)c(C)c1 | > 6.25 | 40

Row | SMILES | MIC [1] [µg/mL] | inhibition of growth at 6.25 µg/mL [2] [%]
26 | O=C1Nc2c(Cl)cccc2C(=O)/C1=N/Nc1ccccc1 | < 6.25 | 100
27 | O=C1Nc2cc([N+](=O)[O-])ccc2C(=O)/C1=N/Nc1ccc(Cl)c(F)c1 | < 6.25 | 70
28 | O=C1Nc2c(ccc(Cl)c2Cl)C(=O)/C1=N/Nc1ccccc1 | < 6.25 | 85
29 | Cc1ccc(N/N=C2\C(=O)Nc3c(ccc(Cl)c3Cl)C2=O)cc1 | < 6.25 | 54
30 | O=C1Nc2cc([N+](=O)[O-])ccc2C(=O)/C1=N/Nc1ccc(Br)cc1 | < 6.25 | 100
31 | O=C1Nc2cc(Cl)ccc2C(=O)/C1=N/Nc1ccccc1 | < 6.25 | 76
32 | Cc1cccc(C)c1N/N=C1\C(=O)Nc2c(cccc2[N+](=O)[O-])C1=O | > 6.25 | 22
33 | O=C1Nc2c(cccc2[N+](=O)[O-])C(=O)/C1=N/Nc1ccc(F)c(Cl)c1 | < 6.25 | 85
34 | CN1C(=O)/C(=N\Nc2ccc([N+](=O)[O-])cc2)C(=O)c2ccccc21 | > 6.25 | 20
35 | O=C1Nc2c(ccc(Cl)c2Cl)C(=O)/C1=N/Nc1ccc([N+](=O)[O-])cc1 | < 6.25 | 89
36 | Cc1ccc(N/N=C2\C(=O)Nc3c(Cl)cccc3C2=O)cc1 | > 6.25 | 34
37 | Cc1cccc(N/N=C2\C(=O)Nc3cc([N+](=O)[O-])ccc3C2=O)c1 | > 6.25 | 19
38 | Cc1ccc(N/N=C2\C(=O)Nc3cc([N+](=O)[O-])ccc3C2=O)cc1 | < 6.25 | 92
39 | Cc1cccc(N/N=C2\C(=O)Nc3c(cccc3[N+](=O)[O-])C2=O)c1C | > 6.25 | 48
40 | COc1ccc(N/N=C2\C(=O)Nc3c(Cl)ccc(Cl)c3C2=O)cc1 | > 6.25 | 36
41 | CN1C(=O)/C(=N\Nc2ccc(Cl)c(Cl)c2)C(=O)c2ccccc21 | > 6.25 | 10
42 | CC(=O)c1ccc(N/N=C2\C(=O)Nc3ccc(Cl)cc3C2=O)cc1 | > 6.25 | 29
43 | Cc1cccc(N/N=C2\C(=O)Nc3ccccc3C2=O)c1 | > 6.25 | 42
44 | CN1C(=O)/C(=N\Nc2ccc(Cl)cc2)C(=O)c2ccccc21 | > 6.25 | 38
45 | O=C1Nc2ccc(Cl)cc2C(=O)/C1=N/Nc1cccc([N+](=O)[O-])c1 | < 6.25 | 96
46 | Cc1c(Cl)cccc1N/N=C1\C(=O)Nc2c(cccc2[N+](=O)[O-])C1=O | < 6.25 | 56
47 | COc1ccc(N/N=C2\C(=O)Nc3ccc(Cl)cc3C2=O)cc1 | < 6.25 | 55
48 | O=C1Nc2ccc(Cl)cc2C(=O)/C1=N/Nc1ccc(F)cc1 | < 6.25 | 71
49 | O=C1Nc2c(Cl)cccc2C(=O)/C1=N/Nc1ccc(Cl)c(Cl)c1 | > 6.25 | 21
